Test results reported in PubChem BioAssay AID1963860 (Molecular Pharmacology Branch, DTP, NCI, 2024).

Test system: CN0375-F725-PDC KRAS spheroid viability
Assay: Anticancer human tumor CN0375-F725-PDC patient-derived colon carcinoma cell line growth inhibition [KRAS2]
Details: spheroids with HUVEC and MSC; for IC50: curve of first compound; for viability, T/C: stronger effect = lower value
In short: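 Combination screen of spheroid viability in tumor-cell co-cultures with endothelial (HUVEC) and mesenchymal stem cell stroma. Each agent was tested in half-log dilutions, topping at clinical Cmax or at 10 microM without a known Cmax.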

[1] = second compound 0.0316 µM, first compound 0.0316 µM
[2] = second compound 0.0316 µM, first compound 0.1 µM
[3] = second compound 0.1 µM, first compound 0.0316 µM
[4] = second compound 0.1 µM, first compound 0.1 µM
[5] = second compound 0.316 µM, first compound 0.0316 µM
[6] = second compound 0.316 µM, first compound 0.1 µM
[7] = second compound 1 µM, first compound 0.0316 µM
[8] = second compound 1 µM, first compound 0.1 µM
[9] = second compound 3.16 µM, first compound 0.0316 µM
[10] = second compound 3.16 µM, first compound 0.1 µM
[11] = second compound 0.0316 µM, first compound 0.316 µM
[12] = second compound 0.0316 µM, first compound 1 µM
[13] = second compound 0.0316 µM, first compound 3.16 µM
[14] = second compound 0.0316 µM, first compound 10 µM
[15] = second compound 0.1 µM, first compound 0.316 µM
[16] = second compound 0.1 µM, first compound 1 µM
[17] = second compound 0.1 µM, first compound 3.16 µM
[18] = second compound 0.1 µM, first compound 10 µM
[19] = second compound 0.316 µM, first compound 0.316 µM
[20] = second compound 0.316 µM, first compound 1 µM
[21] = second compound 0.316 µM, first compound 3.16 µM
[22] = second compound 0.316 µM, first compound 10 µM
[23] = second compound 1 µM, first compound 0.316 µM
[24] = second compound 1 µM, first compound 1 µM
[25] = second compound 1 µM, first compound 3.16 µM
[26] = second compound 1 µM, first compound 10 µM
[27] = second compound 3.16 µM, first compound 0.316 µM
[28] = second compound 3.16 µM, first compound 1 µM
[29] = second compound 3.16 µM, first compound 3.16 µM
[30] = second compound 3.16 µM, first compound 10 µM
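Also: spheroids exposed to agents for 7 days.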

| SMILES | IC50 (second compound 0.0316 µM) | IC50 (second compound 0.1 µM) | IC50 (second compound 0.316 µM) | IC50 (second compound 1 µM) | IC50 (second compound 3.16 µM) | viability, T/C [1] | viability, T/C [2] | viability, T/C [3] | viability, T/C [4] | viability, T/C [5] | viability, T/C [6] | viability, T/C [7] | viability, T/C [8] | viability, T/C [9] | viability, T/C [10] | viability, T/C [11] | viability, T/C [12] | viability, T/C [13] | viability, T/C [14] | viability, T/C [15] | further results |
| --- | --- | --- | --- | --- | --- | --- | --- | --- | --- | --- | --- | --- | --- | --- | --- | --- | --- | --- | --- | --- | --- |
| CC(C)n1nc(-c2ccc3oc(N)nc3c2)c2c(N)ncnc21 + C=CC(=O)N1CCN(c2nc(OCC3CCCN3C)nc3c2CCN(c2cccc4cccc(C)c24)C3)CC1CC#N | 54.2 nM | 39.2 nM | 56.6 nM | 42.7 nM | < 0.316 nM | 57.5% | 42.4% | 51.9% | 43.9% | 56.6% | 45% | 53.2% | 46.1% | 11.5% | 8.34% | – | – | – | – | – | viability, T/C (second compound 0.0316 µM, first compound 0.000316 µM): 106%; viability, T/C (second compound 0.0316 µM, first compound 0.001 µM): 96.5%; viability, T/C (second compound 0.0316 µM, first compound 0.00316 µM): 76.8%; viability, T/C (second compound 0.0316 µM, first compound 0.01 µM): 70.1%; viability, T/C (second compound 0.1 µM, first compound 0.000316 µM): 103%; viability, T/C (second compound 0.1 µM, first compound 0.001 µM): 95.2%; viability, T/C (second compound 0.1 µM, first compound 0.00316 µM): 78.8%; viability, T/C (second compound 0.1 µM, first compound 0.01 µM): 63.8%; viability, T/C (second compound 0.316 µM, first compound 0.000316 µM): 103%; viability, T/C (second compound 0.316 µM, first compound 0.001 µM): 98%; viability, T/C (second compound 0.316 µM, first compound 0.00316 µM): 78.3%; viability, T/C (second compound 0.316 µM, first compound 0.01 µM): 63.7%; viability, T/C (second compound 1 µM, first compound 0.000316 µM): 87.4%; viability, T/C (second compound 1 µM, first compound 0.001 µM): 91.2%; viability, T/C (second compound 1 µM, first compound 0.00316 µM): 75.1%; viability, T/C (second compound 1 µM, first compound 0.01 µM): 60%; viability, T/C (second compound 3.16 µM, first compound 0.000316 µM): 37.8%; viability, T/C (second compound 3.16 µM, first compound 0.001 µM): 11.5%; viability, T/C (second compound 3.16 µM, first compound 0.00316 µM): 31.4%; viability, T/C (second compound 3.16 µM, first compound 0.01 µM): 1.09% |
| CC1(C)CCC(CN2CCN(c3ccc(C(=O)NS(=O)(=O)c4ccc(NCC5CCOCC5)c([N+](=O)[O-])c4)c(Oc4cnc5[nH]ccc5c4)c3)CC2)=C(c2ccc(Cl)cc2)C1 + C=CC(=O)N1CCN(c2nc(OCC3CCCN3C)nc3c2CCN(c2cccc4cccc(C)c24)C3)CC1CC#N | 3980 nM | 4630 nM | 2670 nM | 2010 nM | < 31.6 nM | 108% | 102% | 104% | 104% | 101% | 108% | 96.6% | 97.2% | 11% | 12% | 101% | 107% | 58.5% | 15.9% | 102% | viability, T/C [16]: 99%; viability, T/C [17]: 66.3%; viability, T/C [18]: 17%; viability, T/C [19]: 101%; viability, T/C [20]: 96.6%; viability, T/C [21]: 42%; viability, T/C [22]: 14.3%; viability, T/C [23]: 100%; viability, T/C [24]: 86.3%; viability, T/C [25]: 26.2%; viability, T/C [26]: 5.23%; viability, T/C [27]: 3.38%; viability, T/C [28]: 3.27%; viability, T/C [29]: 0.38%; viability, T/C [30]: 0.17% |
| COc1cc2nccc(Oc3ccc(NC(=O)C4(C(=O)Nc5ccc(F)cc5)CC4)cc3)c2cc1OC + C=CC(=O)N1CCN(c2nc(OCC3CCCN3C)nc3c2CCN(c2cccc4cccc(C)c24)C3)CC1CC#N | > 10000 nM | > 10000 nM | > 10000 nM | 1910 nM | < 31.6 nM | 106% | 100% | 101% | 101% | 96.6% | 100% | 95.5% | 92% | 14.4% | 18.7% | 91.3% | 85.9% | 61.1% | 69.8% | 92.6% | viability, T/C [16]: 83.2%; viability, T/C [17]: 53.8%; viability, T/C [18]: 68.9%; viability, T/C [19]: 85.9%; viability, T/C [20]: 80.7%; viability, T/C [21]: 56.9%; viability, T/C [22]: 52.8%; viability, T/C [23]: 90.7%; viability, T/C [24]: 75.7%; viability, T/C [25]: 29.9%; viability, T/C [26]: 9.59%; viability, T/C [27]: 3.2%; viability, T/C [28]: 0.26%; viability, T/C [29]: 0.13%; viability, T/C [30]: 0.17% |
